Experimental data as given in patent US12174192B2, “Methods for detecting and treating cancers having adenosine pathway activation” (Corvus Pharmaceuticals, Inc., priority 2018, dated 2024).
Entries after “also recorded” stand apart in the source; their conditions may differ.

Legend:
A2AR = experiment: In vitro A2AR stimulation gene signature and its inhibition by CPI-444; type: cell-based, human; conditions: transcript and protein level
Method: RNA purified from normal, healthy human peripheral blood mononuclear cells (PBMCs) treated with 5′-N-ethylcarboxamidoadenosine (NECA) and activated with anti-CD3/CD28 antibody were analyzed by NanoString hybridization-based quantification (NanoString Technologies, Inc.). […] Each dot represents the expression level of a specific gene. Dot shade represents the concentration of NECA used and/or different PBMC donors. […] Increases in monocyte/macrophage inflammatory mediators such as IL-1b and CCL2,3,7,8, 20 were also observed, as were increases in SERPINB2, S100A8, PTGS2, THBS1. Expression of CXCL10 and GZMB were decreased, consistent with a suppressed IFNg response. […] A2AR agonists induce a specific gene signature (increase in a certain subset of genes and/or decrease in a second subset of genes) dominated by immunosuppressive mediators of MDSC and monocyte/macrophage biology. Inhibition of these genes by CPI-444 are observed. These gene signatures may be used as biomarkers for patient selection.

IL6 and IL8 = experiment: Plasma IL6 and IL8 protein levels in RCC patients after CPI-444 treatment; type: in vivo, human; conditions: RCC patients with reduction in tumor size (best response); after treatment (4 weeks)
renal tumors (RCC) = experiment: Change in tumor size in renal cancer patients treated with CPI-444 (Ph 1/1b trial); type: in vivo, human
Method: Methods: Tumor biopsies obtained at trial screening from patients with RCC (n=30) were analyzed for gene expression profiles with the Nanostring PanCancer Immune Panel that included 770 markers of immune activity and inflammation. The gene expression correlation (Spearman) matrix was hierarchically clustered (Ward's method) to identify modules of genes that were co-expressed across tumors. Gene expression was normalized to housekeeper genes included in the PanCancer Immune Panel. Gene cluster expression intensity was compared between patients with evaluable best change in tumor size ≤0 (n=8) vs >0 (n=15). The composite gene expression score was calculated as the average of the Log2 of expression values (normalized Nanostring counts) for seven genes (CXCL1, CXCL2, CXCL3, CXCL5, IL1B, IL8, SERPINB2) shown to be induced in vitro in normal peripheral blood mononuclear cells by adenosine. Protein expression was determined from blood (plasma) samples from baseline (untreated) renal cell carcinoma (RCC) patients using MesoScale assay.
Renal cancer patients were treated with CPI-444, and change in tumor size was measured.

[1] = tested on: adenosine-modulated genes and proteins; experiment: Adenosine-induced genes and proteins in tumor biopsies from treated patients; set-up: species or system human; conditions: in vitro and in vivo in tumor biopsies from treated patients
Excerpt: Expression of a subset of genes that are modulated by adenosine levels correlates with tumor regression in the ongoing Ph 1/1b trial with CPI-444 treatment in RCC. […] A2AR agonists induce a specific gene signature dominated by immunosuppressive mediators of MDSC and monocyte/macrophage biology. […] These genes and proteins may identify patients with high levels of adenosine and be used as biomarkers for patient selection to select patients most likely to respond to therapy with agents that antagonize adenosine production or signaling.

PBMCs = experiment: CXCL5 protein ELISA in culture supernatants of PBMCs treated with NECA +/- CPI-444; type: cell-based; conditions: PBMCs from two human donors; NECA then CPI-444 then anti-CD3/CD28; two days after activation
Method: Expression of CXCL5 was determined by ELISA 2 days after activation.
FIGS. 2B and 2C show the response of PBMCs from two different donors to NECA+/−CPI-444 treatment. DMSO was used as vehicle control. […] This control helps establish that the induction of CXCL5 is specific to signaling through adenosine receptors.
NECA activation of CXCL5 protein expression was evaluated. PBMCs were harvested from two different human donors. […] CPI-444 (Corvus Pharmaceuticals) is an antagonist of the adenosine A2A receptor. CXCL5 protein in the culture supernatants was evaluated by ELISA two days after activation. CXCL5 expression is activated by NECA. […] This establishes that the induction of CXCL5 is specific to signaling through adenosine receptors.

advanced cancers = experiment: Ongoing phase 1/1b trial of CPI-444 monotherapy in patients with advanced cancers; type: in vivo, human
Excerpt: “Adenosine receptor antagonist” refers to a molecule that inhibits activity of adenosine receptors (e.g. A2A or A2B receptors), typically through direct action. Adenosine receptors antagonists can be small or large molecule antagonists. In embodiments, CPI-444 is an example A2A receptor antagonist. […] CPI-444 is described, for example, in PCT Patent Publication No. WO 2017/112917; each of which is incorporated herein by reference in its entirety.

SMILES: Cc1ccc(-c2nc(N)nc3c2nnn3Cc2cccc(CO[C@H]3CCOC3)n2)o1 [CPI-444, (S)-7-(5-methylfuran-2-yl)-3-((6-(((tetrahydrofuran-3-yl)oxy)methyl)pyridin-2-yl)methyl)-3H-[1,2,3]triazolo[4,5-d]pyrimidin-5-amine]
- A2AR stimulation-induced gene expression changes, effect of CPI-444 (A2AR): inhibited these changes
- IL6 and IL8 levels in blood plasma after treatment (IL6 and IL8): reduced; also recorded: decreased
- response to CPI-444 monotherapy, patients with high CD68 or high CD163 gene levels in the tumors (renal tumors (RCC); RCC patients, vs low levels of CD68 or CD163): more likely to respond
- tumor regression with CPI-444, patients with high expression of adenosine-modulated gene subset (renal tumors (RCC); ongoing Ph 1/1b trial, RCC, vs patients with low expression): more likely to have tumor regression
- reduction in tumor size (best overall change) after CPI-444 treatment (renal tumors (RCC); patients with RCC, two subjects): greater than 30%
- change in tumor size after CPI-444 treatment, tumors with low composite gene expression score (renal tumors (RCC); renal cancer patients): tumor regression was not observed
- response to CPI-444, patients with high CCL20 and low CX3CL1 plasma protein levels (renal tumors (RCC); renal cancer patients): more likely to respond
- change in tumor size after CPI-444 treatment, tumors with high composite gene expression score (renal tumors (RCC); renal cancer patients, four patients): reduction in tumor size
- adenosine agonist-induced genes and proteins, effect of CPI-444 [1]: Inhibition of these genes and proteins
- NECA-induced increase in CXCL5 protein (ELISA), effect of added CPI-444 (PBMCs): blocked
- anti-tumor activity as a monotherapy (advanced cancers): demonstrated anti-tumor activity
